Bounds are passed on as bounds.

The target in test [1] is T1, APOL1 G2 (Homo sapiens, UniProt O14791, DEL388-389).
T1 construct: expressed in transfected cells; host or cells: HEK293 T-REx clonal lines: HEK T-REx/GCaMP6f/APOL1 G2 K6.3 in A1, HEK293/T-REx APOL1 G2/clone #2 in A2
T1 sequence (O14791 with tags, fused parts or gaps DEL388-389): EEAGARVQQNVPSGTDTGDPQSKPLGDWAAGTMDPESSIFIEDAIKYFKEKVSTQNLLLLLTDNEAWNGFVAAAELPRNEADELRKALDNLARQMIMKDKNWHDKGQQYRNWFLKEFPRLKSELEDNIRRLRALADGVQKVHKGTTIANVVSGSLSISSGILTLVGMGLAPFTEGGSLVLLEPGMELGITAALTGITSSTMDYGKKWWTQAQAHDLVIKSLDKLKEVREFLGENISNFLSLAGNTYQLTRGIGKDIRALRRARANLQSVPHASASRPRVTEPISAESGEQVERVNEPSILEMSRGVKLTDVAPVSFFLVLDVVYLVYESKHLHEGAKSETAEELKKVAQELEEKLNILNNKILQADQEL
As to the kind of experiment: Rescue of HEK293 cell death caused by overexpression of APOL1 (CellTiter-Glo luminescence), HEK293/T-REx APOL1 G2/clone #2. In kind it is cell-based. Particulars: reversal of cell death caused by overexpression of APOL1; geometric mean of at least 2 assay runs, † = single assay run (technical duplicate). The gist of the method: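 HEK293/T-REx APOL1 G2 clone #2 cells, 5,000/well, induced with 6 ng/mL doxycycline and exposed to compound (8-point, 3-fold dilutions, 0.5% DMSO) for 17 h at 37 °C. Viability by CellTiter-Glo luminescence; EC50 for reversal of APOL1-induced death from a four-parameter logistic fit, geometric mean of ≥2 runs.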

Test [2] concerns the target T1, APOL1 G2. In words: APOL1 calcium transport inhibition assay (GCaMP6f calcium influx, FLIPR) in HEK T-REx/GCaMP6f/APOL1 G2 K6.3 cells. The format is cell-based. Particulars: inhibition of APOL1-mediated calcium influx; geometric mean of at least 2 assay runs, † = single assay run (technical duplicate). The method in brief:
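HEK293 cells stably expressing GCaMP6f, APOL1 G2 induced 6 h with doxycycline (20 ng/mL added), then washed into Ca2+-free Tyrode's buffer pH 7.4. Compounds (8-point dose response) preincubated 10 min at room temperature, then Ca2+ injected to 5 mM final and influx read on FLIPR. AC50 reported as geometric mean of runs.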

Consider `CN(c1ccc(OC[C@@H]2CCN(CCc3cccc(Cl)c3)C2)cc1)S(C)(=O)=O` [Compound 50, (R)-N-(4-((1-(3-chlorophenethyl)pyrrolidin-3-yl)methoxy)phenyl)-N-methylmethanesulfonamide], for which, at APOL1 G2 [1], the EC50 amounted to 2.02 µM. Besides, the AC50 at APOL1 G2 [2] amounted to 1.32 µM.
Taken in the same sequence, the figures for `CN(c1ccc(OC[C@H](O)CN2CCOC(c3cccc(Cl)c3)C2)cc1)S(C)(=O)=O` (stereo partly drawn) [Compound 83, N-(4-((2R)-3-(2-(3-chlorophenyl)morpho-lino)-2-hydroxypropoxy)phe-nyl)-N-methylmethanesulfon-amide] were greater than 30 µM and greater than 25 µM.
For `CN(c1ccc(OC[C@@H](O)CN2CCC(c3cccc(Cl)c3)C2(C)C)cc1)S(C)(=O)=O` (single isomer, unassigned) [Compound 70, N-(4-((R)-(S)-3-((R) or (S)-3-(3-chlorophenyl)-2,2-dimethylpyrrolidin-1-yl)-2-hydroxypropoxy)phe-nyl)-N-methylmethanesulfon-amide], the EC50 on APOL1 G2 [1] was 0.303 µM. In addition, on APOL1 G2 [2], the AC50 turned out to be 0.295 µM.
`CN=S(C)(=O)c1ccc(OC[C@@H]2CN(CCc3cc(Cl)cc(C#N)c3)CCN2)cc1` (single isomer, unassigned) [Compound 188, 3-chloro-5-{2-[(3S)-3-({4-[(R or S)-methyl(methyl-imino)oxo-λ^6-sulfanyl]pheno-xy}methyl)piper-azin-1-yl]ethyl}benzo-nitrile]: the EC50 on APOL1 G2 [1] stood at 0.303 µM. In addition, the AC50 on APOL1 G2 [2] stood at 0.511 µM.
Regarding `C[C@@]1(O)CN(CCc2cccc(Cl)c2)C[C@@H]1COc1ccc(S(C)(=O)=O)cc1` (single isomer, unassigned) [Compound 209, (3R,4S or 3S,4R)-1-[2-(3-chlorophenyl)ethyl]-4-[(4-methanesulfonylphenoxy)methyl]-3-methylpyrrolidin-3-ol pyrrolidine-3-ol], the EC50 at APOL1 G2 [1] is greater than 19.5 µM. The AC50 on APOL1 G2 [2] was determined as 3.74 µM.
On to `COC1CCN(CCc2cccc(Cl)c2)CC1COc1ccc(S(C)(=O)=O)cc1` (single isomer, unassigned) [Compound 34, rac-cis or trans-1-(3-chlorophenethyl)-4-methoxy-3-((4-(methylsulfonyl)phenoxy)methyl)piperidine], for which the EC50 on APOL1 G2 [1] was determined as 0.779 µM. On APOL1 G2 [2], the AC50 stood at 0.991 µM.
For `CC(CN1C[C@@H](COc2ccc(S(C)(=O)=O)cc2)C[C@H]1C)c1cc(Cl)cc(C#N)c1` (single isomer, unassigned) [Compound 143, 3-chloro-5-[(2S or 2R)-1-[(2R, 4S)-4-[(4-meth-anesulfonyl-phenoxy)meth-yl]-2-methyl-pyrrolidin-1-yl]-propan-2-yl]-benzonitrile], the EC50 on APOL1 G2 [1] was 0.349 µM. Moreover, the AC50 on APOL1 G2 [2] was found to be 3.16 µM.
Consider `CN(c1ccc(OCC2CN(CCc3cccc(Cl)c3)CCCO2)cc1)S(C)(=O)=O` (single isomer, unassigned) [Compound 11, (R) or (S)-N-(4-((4-(3-chlorophenethyl)-1,4-oxazepan-2-yl)methoxy)phenyl)-N-methylmethane-sulfonamide], for which the EC50 at APOL1 G2 [1] came to 1 µM. Also, on APOL1 G2 [2], the AC50 was found to be 1.19 µM.
Turning to `CS(=O)(=O)c1ccc(CCC2CCCN(CCc3cccc(Cl)c3)C2)cc1` (single isomer, unassigned) [Compound 41, (R) or (S)-1-(3-chlorophenethyl)-3-(4-(methylsulfonyl)phenethyl)piperidine], at APOL1 G2 [1], the EC50 was determined as 2.82 µM. In addition, the AC50 at APOL1 G2 [2] stood at 2.11 µM.
In the same order, the values of `CC1CNC(COc2ccc(S(C)(=O)=O)cc2)CN1CCc1cccc(Cl)c1` (single isomer, unassigned) [Compound 213, rac-trans or cis-(2R,5S)-1-[2-(3-chlorophenyl)ethyl]-5-[(4-methanesulfonylphenoxy)methyl]-2-methylpiperazine] are 0.964 µM and 0.877 µM.
As for `C[C@@]1(O)CN(CCc2cccc(Cl)c2)C[C@H]1COc1ccc(S(C)(=O)=O)cc1` (racemic) [Compound 205], the EC50 at APOL1 G2 [1] was determined as 1.59 µM. The AC50 at APOL1 G2 [2] is less than 0.236 µM.
Taken in the same sequence, the figures for `CN(c1ccc(OC[C@@H](O)CNCCc2cccc(C#N)c2)cc1)S(C)(=O)=O` [Compound 99, (S)-N-(4-(3-((3-cyanophenethyl)a-mino)-2-hydroxypropoxy)phe-nyl)-N-methylmethanesulfon-amide] were greater than 30 µM and 4.14 µM.
In the same order, the values of `C[C@@H]1CN(CC(O)c2cc(Cl)cc(C#N)c2)C[C@H]1COc1ccc(S(C)(=O)=O)cc1` (single isomer, unassigned) [Compound 121, 3-chloro-5-[(1S or 1R)-1-hydroxy-2-[(3S,4S)-3-[(4-methanesulfonylphenoxy)methyl]-4-methylpyrrolidin-1-ylethyl]benzonitrile] are 0.1 µM and 0.27 µM.
`CS(=O)(=O)c1ccc(OC[C@@H]2CCCN(CC(O)c3cccc(Cl)c3)C2)cc1` (single isomer, unassigned) [Compound 21, (R) or (S)-1-(3-chlorophenyl)-2-((R)-3-((4-(methylsulfonyl)phenoxy)methyl)piperidin-1-yl)ethanol]: on APOL1 G2 [1], the EC50 came to 1.02 µM. For the same molecule, on APOL1 G2 [2], the concentration at half-maximal activity (AC50) was 0.623 µM.
Regarding `CS(=O)(=O)c1ccc(OC[C@@H](O)CNCCc2cccc(Cl)c2)cc1` [Compound 93, (S)-1-((3-chlorophenethyl)a-mino)-3-(4-(methylsulfonyl)phe-noxy)propan-2-ol], the EC50 at APOL1 G2 [1] is greater than 30 µM. Besides, the half-maximal activity concentration (AC50) on APOL1 G2 [2] was 6.54 µM.
In the same order, the values of `CN(c1ccc(OC[C@H](O)CN2CCC(c3cccc(Cl)c3)C2(C)C)cc1)S(C)(=O)=O` (single isomer, unassigned) [Compound 73, N-(4-((R)-3-((R) or (S)-3-(3-chlorophenyl)-2,2-dimethylpyrrolidin-1-yl)-2-hydroxypropoxy)phe-nyl)-N-methylmethanesulfon-amide] are greater than 17.8 µM and 3.06 µM.
Consider `CS(=O)(=O)c1ccc(OC[C@@H]2CN(CCc3cc(Cl)cc(Cl)c3)CCN2)cc1` [Compound 190, (3S)-1-[2-(3,5-dichlorophenyl)ethyl]-3-[(4-methanesulfonylphenoxy)methyl]piperazine], for which, on APOL1 G2 [1], the EC50 is 0.291 µM. Moreover, on APOL1 G2 [2], the AC50 came to 0.17 µM.
Taken in the same sequence, the figures for `CCc1ccccc1CCNC[C@H](O)COc1ccc(N(C)S(C)(=O)=O)cc1` [Compound 100, (S)-N-(4-(3-((2-ethylphenethyl)ami-no)-2-hydroxypropoxy)phe-nyl)-N-methylmethanesulfon-amide] were 2.73 µM and 1.26 µM.
Taken in the same sequence, the figures for `CC1CC(COc2ccc(S(C)(=O)=O)cc2)CN1CCc1cc(Cl)cc(C#N)c1` (single isomer, unassigned) [Compound 201, 3-chloro-5-(2-((2R,4S or 2S,4R or 2R,4R or 2S,4S)-2-methyl-4-((4-(methylsulfonyl)phenoxy)methyl)pyrrolidin-1-yl)ethyl)benzonitrile] were 1.68 µM and 0.62 µM.
In the same order, the values of `CN(c1ccc(OC[C@@H](O)CN2CCOC(c3cccc(Cl)c3)C2)cc1)S(C)(=O)=O` (single isomer, unassigned) [Compound 81, N-(4-((S)-3-((S) or (R)-2-(3-chlorophenyl)morpho-lino)-2-hydroxypropoxy)phe-nyl)-N-methylmethanesulfon-amide] are greater than 30 µM and greater than 25 µM.
With `C[C@@H]1C[C@H](COc2ccc(S(C)(=O)=O)cc2)CN1CC(O)c1cccc(Cl)c1` (single isomer, unassigned) [Compound 215, (1S) or (1R)-1-(3-chlorophenyl)-2-[(2R,4S)-4-[(4-methanesulfonylphenoxy)methyl]-2-methylpyrrolidin-1-yl]ethan-1-ol], the EC50 at APOL1 G2 [1] was determined as 0.0422 µM. Moreover, the AC50 at APOL1 G2 [2] was found to be 0.229 µM.
Turning to `CN(c1ccc(OC[C@@H](O)CN2CCC(c3cccc(Cl)c3)C2)cc1)S(C)(=O)=O` (single isomer, unassigned) [Compound 76, N-(4-((S)-3-((R) or (S)-3-(3-chlorophenyl)pyrro-lidin-1-yl)-2-hydroxypropoxy)phe-nyl)-N-methylmethanesulfon-amide], on APOL1 G2 [1], the EC50 is greater than 6.28 µM. The AC50 on APOL1 G2 [2] was determined as 2.83 µM.
`C[C@@H]1C[C@H](COc2ccc(S(C)(=O)=O)cc2)CN1CC(O)c1cc(Cl)cc(C#N)c1` (single isomer, unassigned) [Compound 115, 3-chloro-5-[(1R or 1S)-1-hydroxy-2-[(2R,4S)-4-[(4-methanesulfonylphenoxy)methyl]-2-methylpyrrolidin-1-yl]ethyl] benzonitrile]: the EC50 at APOL1 G2 [1] came to 0.0447 µM. Besides, the AC50 on APOL1 G2 [2] worked out at 0.756 µM.

These data come from patent US20240316038A1, “APOL1 INHIBITORS AND METHODS OF USE” (Maze Therapeutics, Inc., priority 2021, published 2024).
